Results on 20 compounds are retold here after patent US7232906B2, “Substituted pyrrolines as kinase inhibitors” (Janssen Pharmaceutica N.V., priority 2002, dated 2007).

What all share (assay type): biochemical
For assay [1], the target named is recombinant rabbit GSK-3β (Oryctolagus cuniculus, UniProt G1T8E2). Description: Glycogen Synthase Kinase-3 assay. The arrangement: GSK-3β Assay Activity, % @ 200 nM: scale not given here. The following applies: PPI-2 substrate; for IC50: 33P-ATP, 90 minutes at 30° C. How it is done: Compounds were tested for the ability to inhibit recombinant rabbit GSK-3β using the following protocol. The test compound was added to a reaction mixture containing Protein phosphatase inhibitor-2 (PPI-2) (Calbiochem) (45 ng), rabbit GSK-3β (New England Biolabs) (0.75 units) and ^33P-ATP (1 μCi) in 50 mM Tris-HCl (pH 8.0), 10 mM MgCl2, 0.1% BSA, 1 mM DTT and 100 μM Sodium Vanadate. The mixture was reacted for 90 minutes at 30° C. to allow phosphorylation of the PPI-2 protein and then the protein in the reaction was precipitated using 10% TCA. The precipitated protein was collected on filter plates (MultiScreen-DV/Millipore), which were subsequently washed. Finally, the radioactivity was quantified using a TopCount Scintillation Counter (Packard). […] Staurosporine or Valproate, known inhibitors of GSK-3β, were used as a positive control for screening.

Another assay concerns the target PKC β-II (Homo sapiens, UniProt P05771). Description: Protein Kinase C histone-based assay, β-II isoform. The arrangement: PKC Activity Beta II, % @ 1 μM (Histone Based Assay): scale not given here. The following applies: histone III substrate; for IC50: 30 μM ATP, approximately ± 30 percent margin of error, read-out: PKC Activity Beta II (IC50, Histone Based Assay). The protocol: (§1) Compounds were evaluated for PKC selectivity using histone III as the substrate. The PKC isoforms α, β-II or γ were added to a reaction mixture that contained 20 mM HEPES, (pH 7.4), 940 μM CaCl2, 10 mM MgCl2, 1 mM EGTA. 100 μg/mL phosphatidylserine, 20 μg/mL diacylglycerol, 30 μM ATP, 1 μCi (^33P)ATP and 200 μg/mL histone III. The reaction was incubated for 10 min at 30° C. Reactions were terminated by TCA precipitation and spotting on Whatman P81 filters. Filters were washed in 75 mM phosphoric acid and the radioactivity quantified by liquid scintillation counting.

The target in the next assay is PKC α (Homo sapiens, UniProt P17252). Description: Protein Kinase C histone-based assay, α isoform. The conditions noted are these: histone III substrate; for IC50: 30 μM ATP, approximately ± 30 percent margin of error, read-out: PKC Activity Alpha (IC50, Histone Based Assay). The arrangement: PKC Activity Alpha, % @ 10 μM (Histone Based Assay): scale not given here. The protocol: as §1

The next assay concerns the target PKC γ (Homo sapiens, UniProt P05129). Description: Protein Kinase C histone-based assay, γ isoform. The arrangement: PKC Activity Gamma, % @ 10 μM (Histone Based Assay): scale not given here. The following applies: histone III substrate; for IC50: 30 μM ATP, approximately ± 30 percent margin of error, read-out: PKC Activity Gamma (IC50, Histone Based Assay). The protocol:
as §1

Chain of recombinant rabbit GSK-3β (G1T8E2 1-432): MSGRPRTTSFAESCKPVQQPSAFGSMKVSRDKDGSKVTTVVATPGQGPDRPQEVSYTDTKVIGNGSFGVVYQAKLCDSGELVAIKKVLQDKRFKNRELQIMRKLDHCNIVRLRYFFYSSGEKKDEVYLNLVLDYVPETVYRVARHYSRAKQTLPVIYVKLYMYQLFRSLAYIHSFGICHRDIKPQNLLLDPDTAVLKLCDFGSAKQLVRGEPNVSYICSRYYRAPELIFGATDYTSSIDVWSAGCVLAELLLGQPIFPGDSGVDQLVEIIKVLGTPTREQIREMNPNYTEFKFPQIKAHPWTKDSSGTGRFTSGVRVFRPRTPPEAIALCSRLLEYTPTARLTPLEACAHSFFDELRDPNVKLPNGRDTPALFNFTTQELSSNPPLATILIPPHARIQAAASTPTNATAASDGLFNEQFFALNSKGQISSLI
Chain of PKC β-II (P05771 1-673 isoform P05771-2): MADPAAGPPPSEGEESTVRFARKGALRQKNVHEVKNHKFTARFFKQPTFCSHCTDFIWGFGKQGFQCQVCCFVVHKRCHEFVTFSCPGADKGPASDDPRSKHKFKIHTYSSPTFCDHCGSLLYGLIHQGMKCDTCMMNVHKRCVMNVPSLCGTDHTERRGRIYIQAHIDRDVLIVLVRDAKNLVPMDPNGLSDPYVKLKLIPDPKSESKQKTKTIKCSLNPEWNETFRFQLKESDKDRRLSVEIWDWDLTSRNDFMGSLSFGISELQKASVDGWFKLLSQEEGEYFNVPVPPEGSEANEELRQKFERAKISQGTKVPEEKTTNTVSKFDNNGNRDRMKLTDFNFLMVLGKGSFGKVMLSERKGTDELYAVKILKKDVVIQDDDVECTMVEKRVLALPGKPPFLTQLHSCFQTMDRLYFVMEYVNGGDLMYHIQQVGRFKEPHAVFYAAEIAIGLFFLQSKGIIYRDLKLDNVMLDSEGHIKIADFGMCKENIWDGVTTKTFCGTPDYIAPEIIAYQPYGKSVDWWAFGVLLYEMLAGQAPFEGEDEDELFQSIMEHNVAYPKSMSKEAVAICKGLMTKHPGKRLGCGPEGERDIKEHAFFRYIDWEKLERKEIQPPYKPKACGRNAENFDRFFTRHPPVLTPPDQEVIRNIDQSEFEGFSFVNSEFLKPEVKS

What is called IC50 is the concentration that gives 50% inhibition. With “3-(2-bromo-5-[3-(dimethylamino)propyl]phenyl]-4-(1-phenyl-1H-indol-3-yl)-1H-pyrrole-2,5-dione [Cpd 25]”, in assay [1], the IC50 was 110 nM.

In the case of “3-(3-bromophenyl)-4-[1-[3-(3-butynylmethylamino)propyl]-1H-indol-3-yl]-1H-pyrrole-2,5-dione [Cpd 22]”, the “GSK-3β Assay Activity, % @ 200 nM” value in assay [1] is listed as 62% @ 200 nM.

As for “3-[1-[3-(3-butynylmethylamino)propyl]-1H-indol-3-yl]-4-(3-iodophenyl)-1H-pyrrole-2,5-dione [Cpd 23]”, the “GSK-3β Assay Activity, % @ 200 nM” value in assay [1] was 67% @ 200 nM.

On to `C=Cn1cc(C2=C(c3cccc(OCC(O)CN(C)C)c3)C(=O)NC2=O)c2ccccc21` (stereo not shown) [Cpd 2, 3-[3-[3-(dimethylamino)-2-hydroxypropoxy]phenyl]-4-(1-ethenyl-1H-indol-3-yl)-1H-pyrrole-2,5-dione], for which, in assay [1], the “GSK-3β Assay Activity, % @ 200 nM” value turned out to be 72% @ 200 nM.

Regarding `CCOC(Cn1cc(C2=C(c3ccccc3OC)C(=O)NC2=O)c2ccccc21)OCC` [Cpd 7, 3-[1-(2,2-diethoxyethyl)-1H-indol-3-yl]-4-(2-methoxy-phenyl)-1H-pyrrole-2,5-dione], the “PKC Activity Beta II, % @ 1 μM (Histone Based Assay)” value on PKC β-II amounted to 68% @ 1 μM. Also, the “PKC Activity Alpha, % @ 10 μM (Histone Based Assay)” value (“PKC Activity Alpha, % @ 10 μM” for short) at PKC α is reported as 39% @ 10 μM. Also, the “PKC Activity Gamma, % @ 10 μM (Histone Based Assay)” value (from here on “PKC Activity Gamma, % @ 10 μM”) on PKC γ turned out to be 54% @ 10 μM. In addition, the IC50 in assay [1] is 390 nM.

As for `COc1ccccc1C1=C(c2cn(CC=O)c3ccccc23)C(=O)NC1=O` [Cpd 8, 3-[2,5-dihydro-4-(2-methoxyphenyl)-2,5-dioxo-1H-pyrrol-3-yl]-1H-indole-1-acetaldehyde], the IC50 in assay [1] was found to be 39 nM.

For the compound `COc1ccccc1C1=C(c2cn(CCN(C)CCO)c3ccccc23)C(=O)NC1=O` [Cpd 9, 3-[1-[2-[(2-hydroxyethyl)methylamino]ethyl]-1H-indol-3-yl]-4-(2-methoxyphenyl)-1H-pyrrole-2,5-dione], on PKC β-II, the “PKC Activity Beta II, % @ 1 μM (Histone Based Assay)” value is listed as 40% @ 1 μM. Besides, the “PKC Activity Alpha, % @ 10 μM” value on PKC α worked out at 27% @ 10 μM. Moreover, the “PKC Activity Gamma, % @ 10 μM” value on PKC γ is 15% @ 10 μM. In addition, in assay [1], the IC50 amounted to 27 nM.

In the case of `CN(C)CCCn1cc(C2=C(c3cccc4ccccc34)C(=O)NC2=O)c2ccccc21` [Cpd 12, 3-[1-[3-(dimethylamino)propyl]-1H-indol-3-yl]-4-(1-naphthalenyl)-1H-pyrrole-2,5-dione], in assay [1], the “GSK-3β Assay Activity, % @ 200 nM” value came out at 64% @ 200 nM.

For `CN(C)CC(O)COc1ccccc1C1=C(c2cn(CCO)c3ccccc23)C(=O)NC1=O` (stereo not shown) [Cpd 21, 3-[2-[3-(dimethylamino)-2-hydroxypropoxy]phenyl]-4-[1-(2-hydroxyethyl)-1H-indol-3-yl]-1H-pyrrole-2,5-dione], the IC50 on PKC β-II is 51 nM; on PKC α, 117 nM; at PKC γ, 477 nM.

As to `COc1ccccc1C1=C(c2cn(-c3cncnc3)c3ccccc23)C(=O)NC1=O` [Cpd 26, 3-(2-methoxyphenyl)-4-[1-(5-pyrimidinyl)-1H-indol-3-yl]-1H-pyrrole-2,5-dione], the half-maximal inhibitory concentration (IC50) at PKC β-II is 607 nM; on PKC α it was 2070 nM; in assay [1], 8 nM. Also, on PKC γ, the “PKC Activity Gamma, % @ 10 μM” value was 29% @ 10 μM.

Consider `COc1ccccc1C1=C(c2cn(-c3cccnc3)c3ccccc23)C(=O)NC1=O` [Cpd 27, 3-(2-methoxyphenyl)-4-[1-(3-pyridinyl)-1H-indol-3-yl]-1H-pyrrole-2,5-dione], for which the concentration for half-maximal inhibition (IC50) on PKC β-II worked out at 527 nM; in assay [1], 26 nM. Moreover, the “PKC Activity Alpha, % @ 10 μM” value at PKC α stood at 66% @ 10 μM.

`O=C1NC(=O)C(c2cn(-c3cccnc3)c3ccccc23)=C1c1ccccc1O` [Cpd 28, 3-(2-hydroxyphenyl)-4-[1-(3-pyridinyl)-1H-indol-3-yl]-1H-pyrrole-2,5-dione]: the 50% inhibitory concentration (IC50) in assay [1] stood at 68 nM.

Consider `O=C1NC(=O)C(c2cn(-c3cccnc3)c3ccccc23)=C1c1ccc(O)cc1` [Cpd 29, 3-(4-hydroxyphenyl)-4-[1-(3-pyridinyl)-1H-indol-3-yl]-1H-pyrrole-2,5-dione], for which the IC50 in assay [1] turned out to be 96 nM.

In the case of `CN(C)CCCn1cc(C2=C(c3csc4ccc(Cl)cc34)C(=O)NC2=O)c2ccccc21` [Cpd 31, 3-(5-chlorobenzo[b]thien-3-yl)-4-[1-[3-(dimethylamino)propyl]-1H-indol-3-yl]-1H-pyrrole-2,5-dione], the results for the half-inhibitory concentration (IC50) at PKC β-II and on PKC α were 81 nM and 83 nM, respectively.

Take `CN(CCO)CCn1cc(C2=C(c3csc4ccc(Cl)cc34)C(=O)NC2=O)c2ccccc21` [Cpd 41, 3-(5-chlorobenzo[b]thien-3-yl)-4-(1-[2-[(2-hydroxyethyl)methylamino]ethyl]-1H-indol-3-yl]-1H-pyrrole-2,5-dione]: the “GSK-3β Assay Activity, % @ 200 nM” value in assay [1] stood at 81% @ 200 nM.

Regarding `O=C1NC(=O)C(c2cn(CCN3CCSC3)c3ccccc23)=C1c1csc2ccc(Cl)cc12` [Cpd 46, 3-(5-chlorobenzo[b]thien-3-yl)-4-[1-[2-(3-thiazolidinyl)ethyl]-1H-indol-3-yl]-1H-pyrrole-2,5-dione], the “GSK-3β Assay Activity, % @ 200 nM” value in assay [1] stood at 45% @ 200 nM.

Turning to `COc1ccccc1C1=C(c2cn(C3CCOCC3)c3ccccc23)C(=O)NC1=O` [Cpd 55, 3-(2-Methoxyphenyl)-4-[1-(tetrahydropyran-4-yl)-1H-indol-3-yl]-1H-pyrrole-2,5-dione], the half-maximal inhibitory concentration (IC50) was determined as 107 nM at PKC β-II, 412 nM on PKC α, 282 nM on PKC γ and 25 nM in assay [1].

For `COc1ccccc1C1=C(c2cn(-c3cncc(C(=O)O)c3)c3ccc(Cl)cc23)C(=O)NC1=O` [Cpd 56, 5-{5-Chloro-3-[4-(2-methoxyphenyl)-2,5-dioxo-2,5-dihydro-1H-pyrrol-3-yl]-indol-1-yl}-nicotinic acid], the IC50 at PKC β-II came to 42 nM; at PKC α, 592 nM; at PKC γ it was 832 nM; in assay [1] it was 51 nM.

`COC(=O)c1cncc(-n2cc(C3=C(c4ccccc4OC)C(=O)NC3=O)c3cc(Cl)ccc32)c1` [Cpd 57, 5-{5-Chloro-3-[4-(2-methoxyphenyl)-2,5-dioxo-2,5-dihydro-1H-pyrrol-3-yl]-indol-1-yl}-nicotinic acid methyl ester]: the IC50 in assay [1] was determined as 40 nM.

As for `COc1ccccc1C1=C(c2cn(-c3cncc(C(N)=O)c3)c3ccc(Cl)cc23)C(=O)NC1=O` [Cpd 58, 5-{5-Chloro-3-[4-(2-methoxyphenyl)-2,5-dioxo-2,5-dihydro-1H-pyrrol-3-yl]-indol-1-yl}-nicotinamide], the concentration for half-maximal inhibition (IC50) stood at 32 nM at PKC β-II, 816 nM on PKC α, 1270 nM on PKC γ and 18 nM in assay [1].
